{"source": "PubChem BioAssay (NCI)", "assay_in_all_cases": "NCI tumour cell line growth inhibition, 48 h", "key": {"[1]": {"tested_on": "EKVX NSCLC"}, "[2]": {"tested_on": "LOX IMVI melanoma"}, "[3]": {"tested_on": "SK-OV-3 ovarian"}, "[4]": {"tested_on": "OVCAR-8 ovarian"}, "[5]": {"tested_on": "SK-MEL-28 melanoma"}, "[6]": {"tested_on": "MCF7 breast"}, "[7]": {"tested_on": "SF-295 CNS"}, "[8]": {"tested_on": "MOLT-4 leukemia"}, "[9]": {"tested_on": "HCC-2998 colon"}, "[10]": {"tested_on": "IGROV1 ovarian"}, "[11]": {"tested_on": "BT-549 breast"}, "[12]": {"tested_on": "HCT-116 colon"}, "[13]": {"tested_on": "SNB-75 CNS"}, "[14]": {"tested_on": "A498 renal"}, "[15]": {"tested_on": "NCI/ADR-RES ovarian"}, "[16]": {"tested_on": "T-47D breast"}, "[17]": {"tested_on": "COLO 205 colon"}, "[18]": {"tested_on": "786-0 renal"}, "[19]": {"tested_on": "TK-10 renal"}, "[20]": {"tested_on": "A549 NSCLC"}, "[21]": {"tested_on": "UO-31 renal"}, "[22]": {"tested_on": "K-562 leukemia"}, "[23]": {"tested_on": "MDA-MB-435"}, "[24]": {"tested_on": "SNB-19 CNS"}, "[25]": {"tested_on": "SK-MEL-2 melanoma"}, "[26]": {"tested_on": "HT29 colon"}, "[27]": {"tested_on": "HOP-62 NSCLC"}, "[28]": {"tested_on": "SN12C renal"}, "[29]": {"tested_on": "UACC-257 melanoma"}, "[30]": {"tested_on": "OVCAR-3 ovarian"}, "[31]": {"tested_on": "HCT-15 colon"}, "[32]": {"tested_on": "RPMI-8226 leukemia"}, "[33]": {"tested_on": "MALME-3M melanoma"}, "[34]": {"tested_on": "CCRF-CEM leukemia"}, "[35]": {"tested_on": "OVCAR-5 ovarian"}, "[36]": {"tested_on": "NCI-H460 lung"}, "[37]": {"tested_on": "U251 CNS"}, "[38]": {"tested_on": "SF-539 CNS"}, "[39]": {"tested_on": "DU-145 prostate"}, "[40]": {"tested_on": "NCI-H522 lung"}, "[41]": {"tested_on": "SF-268 CNS"}, "[42]": {"tested_on": "NCI-H23 lung"}, "[43]": {"tested_on": "PC-3 prostate"}, "[44]": {"tested_on": "SW-620 colon"}, "[45]": {"tested_on": "NCI-H226 lung"}, "[46]": {"tested_on": "MDA-MB-231 breast"}, "[47]": {"tested_on": "SK-MEL-5 melanoma"}, "[48]": {"tested_on": "HS 578T breast"}, "[49]": {"tested_on": "ACHN renal"}, "[50]": {"tested_on": "UACC-62 melanoma"}, "[51]": {"tested_on": "RXF 393 renal"}, "[52]": {"tested_on": "CAKI-1 renal"}, "[53]": {"tested_on": "KM12 colon"}, "[54]": {"tested_on": "OVCAR-4 ovarian"}, "[55]": {"tested_on": "HOP-92 NSCLC"}, "[56]": {"tested_on": "M14 melanoma"}, "[57]": {"tested_on": "HL-60(TB) leukemia"}}, "note": "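Test compounds were applied to cells in 96-well plates for 48 hours at 5 doses. GI50: concentration for 50% inhibition of growth. TGI is the concentration that stops growth completely.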", "data": [{"smiles": "COc1cccc2c1[C@H](OC)[C@]13O[C@@]1(C2=O)[C@H](O)[C@H](C)[C@@](O)(C(=O)[C@@H]1O[C@H]1C)[C@@H]3O", "values": [{"measurement": "GI50", "setting": "[1]", "value": 235, "unit": "nM"}, {"measurement": "TGI", "setting": "[1]", "value": 655, "unit": "nM"}, {"measurement": "GI50", "setting": "[2]", "value": 180, "unit": "nM"}, {"measurement": "TGI", "setting": "[2]", "value": 351, "unit": "nM"}, {"measurement": "GI50", "setting": "[3]", "value": 345, "unit": "nM"}, {"measurement": "TGI", "setting": "[3]", "value": 2430, "unit": "nM"}, {"measurement": "GI50", "setting": "[4]", "value": 317, "unit": "nM"}, {"measurement": "TGI", "setting": "[4]", "value": "> 100000", "unit": "nM"}, {"measurement": "GI50", "setting": "[5]", "value": 271, "unit": "nM"}, {"measurement": "TGI", "setting": "[5]", "value": 722, "unit": "nM"}, {"measurement": "TGI", "setting": "[6]", "value": 1120, "unit": "nM"}, {"measurement": "GI50", "setting": "[7]", "value": 285, "unit": "nM"}, {"measurement": "TGI", "setting": "[7]", "value": 943, "unit": "nM"}, {"measurement": "GI50", "setting": "[8]", "value": 335, "unit": "nM"}, {"measurement": "GI50", "setting": "[9]", "value": 215, "unit": "nM"}, {"measurement": "TGI", "setting": "[9]", "value": 485, "unit": "nM"}, {"measurement": "GI50", "setting": "[10]", "value": 295, "unit": "nM"}, {"measurement": "TGI", "setting": "[10]", "value": 894, "unit": "nM"}, {"measurement": "TGI", "setting": "[11]", "value": 838, "unit": "nM"}, {"measurement": "TGI", "setting": "[12]", "value": 1310, "unit": "nM"}, {"measurement": "TGI", "setting": "[13]", "value": 605, "unit": "nM"}, {"measurement": "GI50", "setting": "[14]", "value": 215, "unit": "nM"}, {"measurement": "TGI", "setting": "[14]", "value": 542, "unit": "nM"}, {"measurement": "TGI", "setting": "[15]", "value": 1180, "unit": "nM"}, {"measurement": "TGI", "setting": "[16]", "value": 1860, "unit": "nM"}, {"measurement": "GI50", "setting": "[17]", "value": 239, "unit": "nM"}, {"measurement": "TGI", "setting": "[17]", "value": 592, "unit": "nM"}, {"measurement": "GI50", "setting": "[18]", "value": 298, "unit": "nM"}, {"measurement": "TGI", "setting": "[18]", "value": 2060, "unit": "nM"}, {"measurement": "GI50", "setting": "[19]", "value": 261, "unit": "nM"}, {"measurement": "TGI", "setting": "[19]", "value": 921, "unit": "nM"}, {"measurement": "GI50", "setting": "[20]", "value": 297, "unit": "nM"}, {"measurement": "TGI", "setting": "[20]", "value": 10700, "unit": "nM"}, {"measurement": "TGI", "setting": "[21]", "value": 800, "unit": "nM"}, {"measurement": "GI50", "setting": "[22]", "value": 326, "unit": "nM"}, {"measurement": "TGI", "setting": "[22]", "value": "> 100000", "unit": "nM"}, {"measurement": "GI50", "setting": "[23]", "value": 286, "unit": "nM"}, {"measurement": "TGI", "setting": "[23]", "value": 812, "unit": "nM"}, {"measurement": "TGI", "setting": "[24]", "value": 1060, "unit": "nM"}, {"measurement": "GI50", "setting": "[25]", "value": 230, "unit": "nM"}, {"measurement": "TGI", "setting": "[25]", "value": 542, "unit": "nM"}, {"measurement": "GI50", "setting": "[26]", "value": 321, "unit": "nM"}, {"measurement": "TGI", "setting": "[26]", "value": 1580, "unit": "nM"}, {"measurement": "GI50", "setting": "[27]", "value": 316, "unit": "nM"}, {"measurement": "TGI", "setting": "[27]", "value": 1790, "unit": "nM"}, {"measurement": "GI50", "setting": "[28]", "value": 197, "unit": "nM"}, {"measurement": "TGI", "setting": "[28]", "value": 691, "unit": "nM"}, {"measurement": "GI50", "setting": "[29]", "value": 270, "unit": "nM"}, {"measurement": "TGI", "setting": "[29]", "value": 818, "unit": "nM"}, {"measurement": "TGI", "setting": "[30]", "value": 824, "unit": "nM"}, {"measurement": "GI50", "setting": "[31]", "value": 313, "unit": "nM"}, {"measurement": "TGI", "setting": "[31]", "value": 1090, "unit": "nM"}, {"measurement": "GI50", "setting": "[32]", "value": 303, "unit": "nM"}, {"measurement": "TGI", "setting": "[32]", "value": 866, "unit": "nM"}, {"measurement": "GI50", "setting": "[33]", "value": 200, "unit": "nM"}, {"measurement": "TGI", "setting": "[33]", "value": 436, "unit": "nM"}, {"measurement": "GI50", "setting": "[34]", "value": 323, "unit": "nM"}, {"measurement": "TGI", "setting": "[34]", "value": "> 100000", "unit": "nM"}, {"measurement": "TGI", "setting": "[35]", "value": 859, "unit": "nM"}, {"measurement": "GI50", "setting": "[36]", "value": 326, "unit": "nM"}, {"measurement": "TGI", "setting": "[36]", "value": 1270, "unit": "nM"}, {"measurement": "TGI", "setting": "[37]", "value": "> 33000", "unit": "nM"}, {"measurement": "TGI", "setting": "[38]", "value": 698, "unit": "nM"}, {"measurement": "TGI", "setting": "[39]", "value": 1130, "unit": "nM"}, {"measurement": "GI50", "setting": "[40]", "value": 264, "unit": "nM"}, {"measurement": "TGI", "setting": "[40]", "value": 803, "unit": "nM"}, {"measurement": "GI50", "setting": "[41]", "value": 295, "unit": "nM"}, {"measurement": "TGI", "setting": "[41]", "value": 1030, "unit": "nM"}, {"measurement": "GI50", "setting": "[42]", "value": 243, "unit": "nM"}, {"measurement": "TGI", "setting": "[42]", "value": 611, "unit": "nM"}, {"measurement": "GI50", "setting": "[43]", "value": 304, "unit": "nM"}, {"measurement": "TGI", "setting": "[43]", "value": 1110, "unit": "nM"}, {"measurement": "GI50", "setting": "[44]", "value": 306, "unit": "nM"}, {"measurement": "TGI", "setting": "[44]", "value": "> 36000", "unit": "nM"}, {"measurement": "GI50", "setting": "[45]", "value": 275, "unit": "nM"}, {"measurement": "TGI", "setting": "[45]", "value": 802, "unit": "nM"}, {"measurement": "GI50", "setting": "[46]", "value": 237, "unit": "nM"}, {"measurement": "TGI", "setting": "[46]", "value": 657, "unit": "nM"}, {"measurement": "GI50", "setting": "[47]", "value": 223, "unit": "nM"}, {"measurement": "TGI", "setting": "[47]", "value": 507, "unit": "nM"}, {"measurement": "GI50", "setting": "[48]", "value": 283, "unit": "nM"}, {"measurement": "TGI", "setting": "[48]", "value": 962, "unit": "nM"}, {"measurement": "GI50", "setting": "[49]", "value": 283, "unit": "nM"}, {"measurement": "TGI", "setting": "[49]", "value": 820, "unit": "nM"}, {"measurement": "GI50", "setting": "[50]", "value": 263, "unit": "nM"}, {"measurement": "TGI", "setting": "[50]", "value": 765, "unit": "nM"}, {"measurement": "GI50", "setting": "[51]", "value": 203, "unit": "nM"}, {"measurement": "TGI", "setting": "[51]", "value": 461, "unit": "nM"}, {"measurement": "TGI", "setting": "[52]", "value": 909, "unit": "nM"}, {"measurement": "TGI", "setting": "[53]", "value": 1710, "unit": "nM"}, {"measurement": "GI50", "setting": "[54]", "value": 246, "unit": "nM"}, {"measurement": "TGI", "setting": "[54]", "value": 642, "unit": "nM"}, {"measurement": "GI50", "setting": "[55]", "value": 223, "unit": "nM"}, {"measurement": "TGI", "setting": "[55]", "value": 717, "unit": "nM"}, {"measurement": "TGI", "setting": "[56]", "value": 534, "unit": "nM"}, {"measurement": "GI50", "setting": "[57]", "value": 238, "unit": "nM"}, {"measurement": "TGI", "setting": "[57]", "value": 696, "unit": "nM"}]}]}
